Test results published in publication PMC12019328, “Discovery of an ApoE4-targeted small-molecule SirT1 enhancer for the treatment of Alzheimer’s disease” (Scientific Reports, 2025).
Converted amounts (≈) assume the structure as drawn.

Columns and labels:
SirT1 protein = SirT1 protein levels in hippocampi of ApoE4-TR:5xFAD mice; type: in vivo; conditions: 56 days, vs vehicle, not statistically significant
Procedure: (§1) The active (-) enantiomer, DDL-218, underwent efficacy testing in ApoE4-TR:5xFAD mice[27] that were 6-7.5 months old at the start of treatment. ApoE4-TR:5xFAD male and female mice received either 20 mg/Kg DDL-218 BID (~ 8- to10-hour interval; total daily dose of 40 mkd) on weekdays and a single 40 mg/Kg dose on weekends (n = 12) or vehicle-only (n = 11); 8 C57BL/6 mice received vehicle-only as behavioral controls. Dosing was by the oral route and by oral feeding using a pipette as previously described, not gavage, as it is safer for repeated oral dosing than gavage. The dose of 20 mg/kg BID (40 mkd) was selected based on findings from PK analysis and was the highest feasible in the formulation used for oral feeding (compound is first solubilized in water, then mixed strawberry syrup diluted in water, for a final vehicle that is 25% syrup and 75% water). The final concentration of DDL-218 was chosen to deliver 20 mg/Kg in a volume of 10–20 µL (adjusted to the weight of each mouse). Mice were treated for 56 days (8 weeks); in week 7, mice underwent Barnes maze testing[29] as described below.
On Day 56, mice were euthanized 2 h after the a.m. dose by pentobarbital over-anesthesia and cardiac puncture for the collection of blood in EDTA tubes on ice for the isolation of plasma by centrifugation at 3,000 x g for 10 min at 4 °C. Mice were perfused with saline at 5 ml/min. […]

Kinetic solubility = type: physicochemical; conditions: aqueous buffer, kinetic from dmso stock, PBS pH 7.4, 37°C
Procedure: supernatants were transferred to new tubes and lyophilized. Samples were reconstituted in 100 µL of 50/50/0.1 (Water/Acetonitrile/Formic Acid) prior to analysis via liquid chromatography-tandem mass spectrometry (LC-MS/MS).
Normalized chromatographic peak areas was plotted at each time point and the half-life (T1/2) of compound in liver microsomes was determined by using the trendline equation to calculate the time at which compound abundance was 50% of that at timepoint 0 (T0).
Kinetic solubility was assessed by separately diluting a test compound solution (10 mM, 100% DMSO) into the aqueous buffer (PBS pH 7.4) and DMSO at 100 μM, 100 μL total volume.
The solutions were then incubated at 37°C for 90 min and centrifuged (16000xg, 5 min). An aliquot (50 µL) of each supernatant was analyzed by LC-MS/MS.
Five standard concentrations (100, 10, 1, 0.1, and 0, DMSO) in duplicates were incubated at 37°C for 90 min and centrifuged (16000xg, 5 min). Aliquots (50 µL) of supernatant were analyzed by LC-MS/MS to create the standard curve.
Table S2. DDL-218 Physiochemical Properties
Kinetic solubility (μM) 64.4
Brain Tissue Binding [fu,bound (%)] 43 […]

NFYb mRNA = test: Hippocampal NFYb mRNA in ApoE4-TR:5xFAD mice; type: in vivo; conditions: 20 mg/Kg BID, 56 days, vs vehicle
Procedure: as §1, with “The final concentration of DDL-218 was chosen to deliver 20 mg/Kg in a volume of 10–20 µL (adjusted to the weight of each mouse). Mice were treated for 56 days (8 weeks); in week 7, mice underwent Barnes maze testing[29] as described below.” left out
Total RNA was isolated from cells or brain tissue (Qiagen RNEasy kit). Total RNA (0.5–1.0 µg) mRNA was then converted to cDNA (SuperScript™ III First-Strand Synthesis SuperMix kit; Thermo Fisher), and gene mRNA levels were measured using a gene-specific qRT-PCR Taqman assays (Thermo Fisher). Gene mRNA levels were normalized to GAPDH mRNA levels measured either in the same cDNA sample or in the same qPCR reaction using multiplexing of gene-of-interest/VIC and GAPDH/FAM, normalized by the delta-delta-Ct method.

[1] = Observation of mice behavior in the PK study; type: in vivo; conditions: oral gavage 10 or 30 mg/Kg
Procedure: C57BL/6J mice were administered DDL-214, -218, or -219 (n = 3 per compound) by oral gavage at a dose of 30 mg/kg in a volume of 5 mL/Kg based on mouse weight. One hour later, mice were euthanized by pentobarbital over-anesthesia and trans-cardial collection of blood for isolation of plasma by centrifugation at 10,000 x g for 10 min at 4 °C. Brain tissue was collected for analysis, frozen on dry ice and stored at -80 °C before analysis.

Compound: CC(N)C(=O)OC(C)(C)Cc1ccncc1 (stereo not shown) [DDL-218]
- increase of mean SirT1 protein levels in hippocampi (SirT1 protein): ~ 20%
- solubility kinetic at 90 min (Kinetic solubility): 64.4 µM (≈ 14.3 µg/mL)
- hippocampal NFYb mRNA (NFYb mRNA): significantly increased
- changes in mice behavior indicative of drug-induced toxicity [1]: No notable changes in mice behavior
